Experimental data from paper PMC2362940 (British Journal of Cancer, 1999).
Entries after “also recorded” stand apart in the source; their conditions may differ. Read-outs that look alike come from different tables or passages of the source.

Assays:
MCF-7/ADR cells = assay: MTT cytotoxicity of taxol with P-gp inhibitors at 10% or 50% FCS in MCF-7/ADR cells; assay type: cell-based, human; conditions: for Resistance of MCF-7/ADR cells: MA Russell and DR Ferry, unpublished data; for EC50: Homo sapiens, NCI/ADR-RES
MES-Dx5 cells [1] = assay: MTT dye-based cytotoxicity assay, 72-h exposure, P-gp-expressing MES-Dx5 cells; assay type: cell-based, human; conditions: for EC50: Homo sapiens, read-out: EC50 of cytotoxic drug in MES-Dx5 cells; for EC50 / Resistance factor (RF) of MES-Dx5 relative to MES-SA cells: MTT
MES-Dx5 cells [2] = assay: Reversal of MES-Dx5 resistance to cytotoxics by P-gp inhibitor (MTT assay, % maximal shift); assay type: cell-based, human; conditions: for EC50: Homo sapiens, MES-Dx5, MTT 72 h
MES-Dx5 cells [3] = assay: Radiolabelled drug accumulation assay in MES-Dx5 cells; assay type: cell-based, human; conditions: for EC50: Homo sapiens, MES-Dx5, 4 h; for Accumulation deficit of MES-Dx5 relative to parental MES-SA cells: steady state
P-gp [4] = assay: as above; assay type: cell-based, human; conditions: human, MES-Dx5 cells (P-gp-expressing); read-out: EC50 for reversal of the accumulation deficit, range over all three radiolabelled cytotoxics
MES-SA cells [5] = assay: Radiolabelled drug accumulation assay in MES-SA cells; assay type: cell-based, human; conditions: data not shown
COR-L23 R = assay: Sensitization of MRP1-expressing COR-L23 R cells to doxorubicin; assay type: cell-based; conditions: 1 M (µM) GF120918, unpublished data
P-gp [6] = tested on: P-gp; parameters: method as in Hyafil et al, 1993; conditions: ref Hyafil et al, 1993; cited from earlier work
[7] = tested on: P388/Dox leukaemia or C26 colon carcinoma; parameters: method as in Hyafil et al, 1993; conditions: single dose of GF120918; ref Hyafil et al, 1993; cited from earlier work
[8] = target: T1, P-gp in MES-Dx5 membranes (Homo sapiens, UniProt P08183)
P-gp [9] = target: P-gp (Homo sapiens, UniProt P08183); assay: in vitro; conditions: membrane preparations of MES-Dx5 cells (P-gp-expressing), MES-Dx5 membranes
[10] = target: T1, P-gp in MES-Dx5 membranes; assay: biochemical
MES-SA cells [11] = assay: MTT dye-based cytotoxicity assay, 72-h exposure, parental MES-SA cells; conditions: Homo sapiens, read-out: EC50 of cytotoxic drug in MES-SA cells
MCF-7 WT cells [12] = tested on: MCF-7 WT cells
MCF-7 WT cells [13] = assay: cells; conditions: Homo sapiens, MCF7, 72 h
[14] = inhibition of [3H]-vinblastine binding, single representative experiment, Figure 7B, 5 nM [3H]-vinblastine

T1 sequence (P08183 whole entry): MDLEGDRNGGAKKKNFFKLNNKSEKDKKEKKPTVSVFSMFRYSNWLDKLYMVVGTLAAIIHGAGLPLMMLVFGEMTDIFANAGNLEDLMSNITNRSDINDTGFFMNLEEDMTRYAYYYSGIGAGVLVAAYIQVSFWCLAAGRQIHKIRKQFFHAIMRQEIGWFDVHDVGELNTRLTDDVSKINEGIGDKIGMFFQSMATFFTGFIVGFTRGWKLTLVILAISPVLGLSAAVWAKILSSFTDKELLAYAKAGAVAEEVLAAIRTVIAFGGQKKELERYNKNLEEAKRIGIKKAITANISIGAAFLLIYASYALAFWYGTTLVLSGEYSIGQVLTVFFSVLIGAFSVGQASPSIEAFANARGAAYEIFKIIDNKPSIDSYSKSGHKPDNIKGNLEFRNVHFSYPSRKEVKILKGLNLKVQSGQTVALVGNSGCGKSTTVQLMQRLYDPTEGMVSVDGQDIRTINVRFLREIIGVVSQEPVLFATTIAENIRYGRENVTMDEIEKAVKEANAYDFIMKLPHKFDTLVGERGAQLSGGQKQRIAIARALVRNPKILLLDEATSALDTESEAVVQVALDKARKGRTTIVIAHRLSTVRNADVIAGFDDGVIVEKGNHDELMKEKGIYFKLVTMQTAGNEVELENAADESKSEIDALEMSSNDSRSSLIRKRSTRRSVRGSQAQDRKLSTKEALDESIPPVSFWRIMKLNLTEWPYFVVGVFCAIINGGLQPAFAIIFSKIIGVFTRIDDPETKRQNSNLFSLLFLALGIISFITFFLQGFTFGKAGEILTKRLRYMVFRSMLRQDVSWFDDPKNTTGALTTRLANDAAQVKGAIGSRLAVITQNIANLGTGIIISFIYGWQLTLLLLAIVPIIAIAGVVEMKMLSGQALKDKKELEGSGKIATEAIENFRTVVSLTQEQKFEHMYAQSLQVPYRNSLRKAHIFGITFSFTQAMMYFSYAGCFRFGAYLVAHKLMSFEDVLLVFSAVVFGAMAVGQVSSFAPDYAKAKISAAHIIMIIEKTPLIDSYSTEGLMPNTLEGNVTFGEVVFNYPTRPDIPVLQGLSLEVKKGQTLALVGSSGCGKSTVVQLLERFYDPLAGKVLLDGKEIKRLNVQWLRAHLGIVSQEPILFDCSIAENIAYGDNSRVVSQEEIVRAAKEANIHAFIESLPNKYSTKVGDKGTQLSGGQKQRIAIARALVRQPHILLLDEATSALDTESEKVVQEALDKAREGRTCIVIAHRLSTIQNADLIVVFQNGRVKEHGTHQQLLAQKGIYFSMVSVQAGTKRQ
Sequence of P-gp (P08183 whole entry): as above

SMILES: CO[C@@H]1[C@H](N(C)C(=O)c2ccccc2)C[C@H]2O[C@]1(C)n1c3ccccc3c3c4c(c5c6ccccc6n2c5c31)C(=O)NC4 [CGP 41251]
- Ratio of EC50s (50% FCS vs 10% FCS) in presence of P-gp inhibitor (MCF-7/ADR cells; MCF-7/ADR, taxol, MTT 72 h): 30 fold

SMILES: COC(=O)C1=C(C)NC(C)=C(C(=O)OCCCN2CCC(c3ccccc3)(c3ccccc3)CC2)[C@@H]1c1cccc([N+](=O)[O-])c1 [Dexniguldipine]
- Ratio of EC50s (50% FCS vs 10% FCS) in presence of P-gp inhibitor (MCF-7/ADR cells): 37 fold

SMILES: COc1cc2c(cc1OC)CN(CCc1ccc(NC(=O)c3cccc4c(=O)c5cccc(OC)c5[nH]c34)cc1)CC2 [GF120918]
- Cytotoxic effect of GF120918 alone (MES-Dx5 cells [1]; MTT assay): did not produce a cytotoxic effect
- EC50 (MES-Dx5 cells [2]; read-out: EC50 of GF120918 to reverse resistance (shifts sensitivity by 50%) to doxorubicin, cytotoxic doxorubicin): 21 ± 6 nM
- EC50 (MES-Dx5 cells [2]; read-out: EC50 of GF120918 to reverse resistance (shifts sensitivity by 50%) to etoposide, cytotoxic etoposide): 7 ± 2 nM
- EC50 (MES-Dx5 cells [2]; read-out: EC50 of GF120918 to reverse resistance (shifts sensitivity by 50%) to taxol, cytotoxic taxol): 91 ± 23 nM
- EC50 (MES-Dx5 cells [2]; read-out: EC50 of GF120918 to reverse resistance (shifts sensitivity by 50%) to taxotere, cytotoxic taxotere): 57 ± 14 nM
- EC50 (MES-Dx5 cells [2]; read-out: EC50 of GF120918 to reverse resistance (shifts sensitivity by 50%) to vinblastine, cytotoxic vinblastine): 19 ± 3 nM
- Extent of reversal of MES-Dx5 resistance, all tested cytotoxic drugs (MES-Dx5 cells [2]; to level of parental MES-SA cells): reversed resistance completely; also recorded: fully reverse resistance
- EC50 (MES-Dx5 cells [3]; read-out: [GF120918] reverses accumulation-deficit by 50%, [3H]-taxol): 37 nM
- EC50 (MES-Dx5 cells [3]; read-out: [GF120918] reverses accumulation-deficit by 50%, [3H]-vinblastine): 48 nM
- EC50 (MES-Dx5 cells [3]; read-out: [GF120918] reverses accumulation-deficit by 50%, [14C]-doxorubicin): 64 nM
- Effect on cellular content of radiolabelled cytotoxics in sensitive MES-SA cells (MES-SA cells [5]): did not increase
- Sensitization of COR-L23 R (MRP1, not P-gp) to doxorubicin (COR-L23 R): not sensitized
- Sensitization of xenograft-bearing mice to doxorubicin [7]: sensitized mice

SMILES: C/C=C/C[C@@H](C)C(=O)[C@H]1C(=O)N[C@@H](C(C)C)C(=O)N(C)CC(=O)N(C)[C@@H](CC(C)C)C(=O)N[C@@H](C(C)C)C(=O)N(C)[C@@H](CC(C)C)C(=O)N[C@@H](C)C(=O)N[C@H](C)C(=O)N(C)[C@@H](CC(C)C)C(=O)N(C)[C@@H](CC(C)C)C(=O)N(C)[C@@H](C(C)C)C(=O)N1C [PSC 833]
- Ratio of EC50s (50% FCS vs 10% FCS) in presence of P-gp inhibitor (MCF-7/ADR cells; MCF-7/ADR, taxol, MTT 72 h): 19 fold

SMILES: CC(=O)O[C@H]1C(=O)[C@@]2(C)[C@H]([C@H](OC(=O)c3ccccc3)[C@]3(O)C[C@H](OC(=O)[C@H](O)[C@@H](NC(=O)c4ccccc4)c4ccccc4)C(C)=C1C3(C)C)[C@]1(OC(C)=O)CO[C@@H]1C[C@@H]2O [[3 H]-taxol]
- Accumulation deficit of MES-Dx5 relative to parental MES-SA cells (MES-Dx5 cells [3]): 20%

SMILES: CC[C@]1(O)C[C@@H]2CN(CCc3c([nH]c4ccccc34)[C@@](C(=O)OC)(c3cc4c(cc3OC)N(C)[C@H]3[C@@](O)(C(=O)OC)[C@H](OC(C)=O)[C@]5(CC)C=CCN6CC[C@]43[C@@H]65)C2)C1 [[3 H]-vinblastine]
- Bmax of [3H]-vinblastine binding in the presence of ATP and MgCl2 ([8]; Figure 6, 1 mM ATP and 3 mM MgCl2, single experiment): 10.9 pmol mg-1 protein
- Bmax of [3H]-vinblastine binding, single representative experiment ([8]; Figure 6, control without ATP/MgCl2): 8.6 pmol mg-1 protein
- Bmax of [3H]-vinblastine binding (mean) ([8]; MES-Dx5 membranes): 5.2 pmol mg-1 protein
- Bmax of [3H]-vinblastine binding (mean) ([8]; MES-Dx5 membranes, listed as [^3H]-vinblastine): 5.2 ± 1.6 pmol mg-1 protein
- Kd (P-gp [9]; KD of [3H]-vinblastine binding, saturation analysis (mean)): 7.8 ± 1.4 nM

SMILES: COc1cccc2c1C(=O)c1c(O)c3c(c(O)c1C2=O)C[C@@](O)(C(=O)CO)C[C@@H]3O[C@H]1C[C@H](N)[C@H](O)[C@H](C)O1 [[14 C]-doxorubicin]
- Accumulation deficit of MES-Dx5 relative to parental MES-SA cells (MES-Dx5 cells [3]): 20%

SMILES: COc1cccc2c1C(=O)c1c(O)c3c(c(O)c1C2=O)C[C@@](O)(C(=O)CO)C[C@@H]3O[C@H]1C[C@H](N)[C@H](O)[C@H](C)O1 [doxorubicin]
- EC50 (MES-Dx5 cells [1]): 534 nM
- Resistance of MCF-7/ADR cells (MCF-7/ADR cells): 200 fold
- Ki ([10]; inhibition of [3H]-vinblastine binding to P-gp (mean), MES-Dx5 membranes, 21C): 6940 ± 2100 nM
- Ki [10, 14]: 112000 nM
- EC50 (MES-SA cells [11]): 58 nM

SMILES: COc1cc([C@@H]2c3cc4c(cc3[C@@H](O[C@@H]3O[C@@H]5CO[C@@H](C)O[C@H]5[C@H](O)[C@H]3O)[C@H]3COC(=O)[C@H]23)OCO4)cc(OC)c1O [etoposide]
- EC50 (MES-Dx5 cells [1]): 6850 nM
- EC50 (MES-SA cells [11]): 3000 nM

SMILES: CC(=O)O[C@H]1C(=O)[C@@]2(C)[C@H]([C@H](OC(=O)c3ccccc3)[C@]3(O)C[C@H](OC(=O)[C@H](O)[C@@H](NC(=O)c4ccccc4)c4ccccc4)C(C)=C1C3(C)C)[C@]1(OC(C)=O)CO[C@@H]1C[C@@H]2O [taxol]
- EC50 (MES-Dx5 cells [1]): 470 nM
- Resistance factor (RF) of MES-Dx5 relative to MES-SA cells (MES-Dx5 cells [1]): 94 fold
- EC50 (MCF-7/ADR cells; read-out: EC50 of taxol without inhibitor, 10% FCS, MCF-7/ADR, MTT 72 h): 8500 nM
- EC50 (MCF-7/ADR cells; read-out: EC50 of taxol without inhibitor, 50% FCS, MCF-7/ADR, MTT 72 h): 4600 nM
- Resistance of MCF-7/ADR cells (MCF-7/ADR cells): 1000 fold
- Maximal displacement of [3H]-vinblastine bound to P-gp ([8]; MES-Dx5 membranes, allosteric inhibitor): 40%
- Ratio of EC50s (50% FCS vs 10% FCS), taxol without inhibitor (MCF-7 WT cells [12]): 0.84
- EC50 (MCF-7 WT cells [13]; read-out: EC50 of taxol without inhibitor, 10% FCS): 6 nM
- EC50 (MCF-7 WT cells [13]; read-out: EC50 of taxol without inhibitor, 50% FCS): 5 nM
- Ki at 3 h (P-gp [9]; probe [3H]-vinblastine, Ki, inhibition of [3H]-vinblastine binding to P-gp (mean), 3 h, 21C): 400 ± 140 nM
- Ki [10, 14]: 96 nM
- EC50 (MES-SA cells [11]): 5 nM

SMILES: CC(=O)O[C@@]12CO[C@@H]1C[C@H](O)[C@@]1(C)C(=O)[C@H](O)C3=C(C)[C@@H](OC(=O)[C@H](O)[C@@H](NC(=O)OC(C)(C)C)c4ccccc4)C[C@@](O)([C@@H](OC(=O)c4ccccc4)[C@H]21)C3(C)C [taxotere]
- EC50 (MES-Dx5 cells [1]): 93 nM
- Resistance factor (RF) of MES-Dx5 relative to MES-SA cells (MES-Dx5 cells [1]): 19 fold
- EC50 (MES-SA cells [11]): 5 nM

SMILES: CC[C@]1(O)C[C@@H]2CN(CCc3c([nH]c4ccccc34)[C@@](C(=O)OC)(c3cc4c(cc3OC)N(C)[C@H]3[C@@](O)(C(=O)OC)[C@H](OC(C)=O)[C@]5(CC)C=CCN6CC[C@]43[C@@H]65)C2)C1 [vinblastine]
- EC50 (MES-Dx5 cells [1]): 30 nM
- EC50 (MES-SA cells [11]): 3 nM
